Patent US10766928B2, “Targeted conformationally-constrained kinked endosomal disrupting peptides” (priority 2012, dated 2020)
Values after ≈ are worked out from the molar mass of the structure shown. Like-named read-outs stand apart in the source and are kept apart here. Non-standard residues stand in square brackets, D forms with d. Residues, ends and D or L forms follow the SMILES beside them. *: point of attachment. Cholesteryloxycarbonyl = CC(C)CCC[C@@H](C)[C@H]1CC[C@H]2[C@@H]3CC=C4C[C@@H](OC(=O)*)CC[C@]4(C)[C@H]3CC[C@]12C; PEG3 = NCCOCCOCCOCCC(=O)O; Pra = C#CC[C@H](N)C(=O)O; Aib = CC(C)(N)C(=O)O; βAla = NCCC(=O)O

Assays:
[1] = Thermodynamic solubility in PBS (pH 7.4); type: physicochemical; conditions: for solubility thermodynamic at 24 h: phosphate buffered saline
Excerpt: Values in parentheses represent 95% confidence intervals. N.D., not determined.
Measurements represent duplicate or more replicates, with active peptides subjected to multiple replicates. ND: not determined. The peptide was non-toxic and soluble in cell culture medium at this concentration.

[2] = system: endosomes of Jurkat lymphocytes; experiment: Endosome disruption in Jurkat lymphocytes: release of carboxyfluorescein from disulfide probe Compound 2, flow cytometry; conditions: for Efficacy (% of max. 1): % change in cellular fluorescence relative to maximal response of Compound 1 (100%); for Efficacy (% of 1): % of the effect of compound 1, calculated span of dose-response curve, ± standard deviation
In short: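 Human Jurkat cells treated with compounds plus disulfide probe Compound 2 (2.5 μM) for 14 h at 37 °C. Cytoplasmic release of pH-sensitive fluorophore Compound 3 quantified by flow cytometry. IC50 by non-linear regression; efficacy as % fluorescence change relative to Compound 1 maximum (100%).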

[3] = pH 7.4, Table 1, PBS pH 7.4, 24 hours at 22° C., ±S.D., read-out: Solubility (aq.)
[4] = read-out: Toxicity (IC50), Table 1, Jurkat lymphocytes, 48 h at 37° C.
[5] = read-out: Potency (EC50), Table 1, Jurkat lymphocytes, probe Compound 2 (2.5 μM), 14 hours, 95% confidence interval in neighbouring cell
[6] = pH 7.4, Table 3, PBS pH 7.4, 24 h at 22° C., read-out: Solubility
[7] = read-out: Toxicity, Table 3, IC50, Jurkat, 48 h at 37° C., footnote a: non-toxic and soluble in cell culture medium at this concentration
[8] = read-out: Potency, Table 2, EC50 ± standard deviation, Jurkat lymphocytes, disulfide-linked fluorescent probe (2.5 μM), 14 h

SMILES | solubility thermodynamic at 24 h [1, 3] [µM] | IC50 (Jurkat lymphocytes; 48 h) [µM] | EC50 ([2]; 14 h) [µM] | Efficacy (% of max. 1) ([2]; Table 1, Jurkat, 14 hours) [%] | EC50 [2, 5] [µM] | solubility thermodynamic at 24 h [1, 6] [µM] | IC50 (Jurkat lymphocytes; [7]) [µM] | Efficacy (% of 1) ([2]; Table 2, Jurkat, 14 h) [%] | EC50 [2, 8] [µM] | other results
C#CC[C@H](NC(=O)[C@H](CCC(=O)O)NC(=O)[C@H](CCC(=O)O)NC(=O)CCNC(=O)CCNC(=O)O[C@H]1CC[C@@]2(C)C(=CC[C@H]3[C@@H]4CC[C@H]([C@H](C)CCCC(C)C)[C@@]4(C)CC[C@@H]32)C1)C(=O)NCCOCCOCCOCCC(=O)NCCOCCOCCOCCC(=O)NC(C)(C)C(=O)NC(C)(C)C(=O)NC(C)(C)C(=O)NC(C)(C)C(=O)N[C@@H](Cc1c[nH]c2ccccc12)C(=O)N[C@@H](Cc1c[nH]c2ccccc12)C(=O)N[C@@H](C)C(=O)N[C@@H](Cc1ccc(O)cc1)C(=O)N[C@@H](Cc1c[nH]c2ccccc12)C(=O)N1CCC[C@H]1C(=O)N1CCC[C@H]1C(=O)N[C@H](C(=O)N[C@@H](C)C(N)=O)C(C)C [Compound 35, R″ = BEEZOOUUUUWWAYWPPVA-CONH2] ({Cholesteryloxycarbonyl-βAla-βAla}-EE[Pra][PEG3][PEG3][Aib][Aib][Aib][Aib]WWAYWPPVA-NH2) | 649 ± 11 (≈ 1840 µg/mL) | 13 | 0.11 |  |  |  |  |  |  | Difference in solubility relative to Compound 31 ([1]; PBS): greater than hundredfold
C#CC[C@H](NC(=O)[C@H](CCC(=O)O)NC(=O)[C@H](CCC(=O)O)NC(=O)CCNC(=O)CCNC(=O)O[C@H]1CC[C@@]2(C)C(=CC[C@H]3[C@@H]4CC[C@H]([C@H](C)CCCC(C)C)[C@@]4(C)CC[C@@H]32)C1)C(=O)NCCOCCOCCOCCC(=O)NCCOCCOCCOCCC(=O)NC(C)(C)C(=O)NC(C)(C)C(=O)NC(C)(C)C(=O)NC(C)(C)C(=O)N[C@@H](Cc1c[nH]c2ccccc12)C(=O)N[C@@H](Cc1c[nH]c2ccccc12)C(=O)N[C@@H](C)C(=O)N[C@@H](Cc1ccc(O)cc1)C(=O)N[C@@H](Cc1c[nH]c2ccccc12)C(=O)N1CCC[C@H]1C(=O)N1CCC[C@H]1C(=O)N[C@H](C(=O)N[C@H](C(N)=O)C(C)C)C(C)C [Compound 36, R″ = BEEZOOUUUUWWAYWPPVV-CONH2] ({Cholesteryloxycarbonyl-βAla-βAla}-EE[Pra][PEG3][PEG3][Aib][Aib][Aib][Aib]WWAYWPPVV-NH2) | 233 ± 21 (≈ 666 µg/mL) | 13 | 0.06 |  |  |  |  |  |  | 
C#CC[C@H](NC(=O)[C@H](CCC(=O)O)NC(=O)[C@H](CCC(=O)O)NC(=O)CCNC(=O)CCNC(=O)O[C@H]1CC[C@@]2(C)C(=CC[C@H]3[C@@H]4CC[C@H]([C@H](C)CCCC(C)C)[C@@]4(C)CC[C@@H]32)C1)C(=O)NCCOCCOCCOCCC(=O)NCCOCCOCCOCCC(=O)NC(C)(C)C(=O)NC(C)(C)C(=O)NC(C)(C)C(=O)NC(C)(C)C(=O)N[C@@H](Cc1c[nH]c2ccccc12)C(=O)N[C@@H](Cc1c[nH]c2ccccc12)C(=O)N[C@@H](C)C(=O)N[C@@H](Cc1ccc(O)cc1)C(=O)N[C@@H](Cc1ccc(O)cc1)C(=O)N1CCC[C@H]1C(=O)N1CCC[C@H]1C(=O)N[C@H](C(=O)N[C@H](C(N)=O)C(C)C)C(C)C [Compound 37, R″ = BEEZOOUUUUWWAYYPPVV-CONH2] ({Cholesteryloxycarbonyl-βAla-βAla}-EE[Pra][PEG3][PEG3][Aib][Aib][Aib][Aib]WWAYYPPVV-NH2) | 348 ± 13 (≈ 986 µg/mL) | 3 | 0.04 |  |  |  |  |  |  | IC50 ([2]; 14 h): 0.04 µM
C#CC[C@H](NC(=O)[C@H](CCC(=O)O)NC(=O)[C@H](CCC(=O)O)NC(=O)CCNC(=O)CCNC(=O)O[C@H]1CC[C@@]2(C)C(=CC[C@H]3[C@@H]4CC[C@H]([C@H](C)CCCC(C)C)[C@@]4(C)CC[C@@H]32)C1)C(=O)NCCOCCOCCOCCC(=O)NCCOCCOCCOCCC(=O)NC(C)(C)C(=O)NC(C)(C)C(=O)NC(C)(C)C(=O)NC(C)(C)C(=O)N[C@@H](Cc1ccc(O)cc1)C(=O)N[C@@H](Cc1ccc(O)cc1)C(=O)N[C@@H](C)C(=O)N[C@@H](Cc1ccc(O)cc1)C(=O)N[C@@H](Cc1ccc(O)cc1)C(=O)N1CCC[C@H]1C(=O)N1CCC[C@H]1C(=O)N[C@H](C(=O)N[C@H](C(N)=O)C(C)C)C(C)C [Compound 38, R″ = BEEZOOUUUUYYAYYPPVV-CONH2] ({Cholesteryloxycarbonyl-βAla-βAla}-EE[Pra][PEG3][PEG3][Aib][Aib][Aib][Aib]YYAYYPPVV-NH2) | 1060 ± 19 (≈ 2950 µg/mL) | 8 | 0.04 |  |  |  |  |  |  | IC50 ([2]; 14 h): 0.04 µM; Selectivity for disruption of endosomes over toxicity to cells in culture ([2]; Jurkat, toxicity after 48 hours): greater than hundredfold
CC(=O)NC(C)(C)C(=O)NC(C)(C)C(=O)NC(C)(C)C(=O)N[C@@H](Cc1c[nH]c2ccccc12)C(=O)N[C@@H](Cc1c[nH]c2ccccc12)C(=O)N[C@@H](C)C(=O)N[C@@H](Cc1ccc(O)cc1)C(=O)N[C@@H](Cc1c[nH]c2ccccc12)C(=O)N1CCC[C@H]1C(=O)N1CCC[C@H]1C(=O)N[C@H](C(=O)N[C@@H](C)C(N)=O)C(C)C [Compound 41] (Ac-[Aib][Aib][Aib]WWAYWPPVA-NH2) | 24 ± 3 (≈ 35.3 µg/mL) |  |  | 53 | 5.9 |  |  |  |  | IC50 (Jurkat lymphocytes; [4]): > 100 µM; Endosome disruption activity (in words) ([2]; Jurkat endosome disruption assay): substantial endosome disruption activity
CC(=O)NC(C)(C)C(=O)NC(C)(C)C(=O)NC(C)(C)C(=O)NC(C)(C)C(=O)N[C@@H](Cc1c[nH]c2ccccc12)C(=O)N[C@@H](Cc1c[nH]c2ccccc12)C(=O)N[C@@H](C)C(=O)N[C@@H](Cc1ccc(O)cc1)C(=O)N[C@@H](Cc1c[nH]c2ccccc12)C(=O)N1CCC[C@H]1C(=O)N1CCC[C@H]1C(=O)N[C@H](C(=O)N[C@@H](C)C(N)=O)C(C)C [Compound 42] (Ac-[Aib][Aib][Aib][Aib]WWAYWPPVA-NH2) | 11 ± 1 (≈ 17.1 µg/mL) |  |  | 85 | 5.3 |  |  |  |  | IC50 (Jurkat lymphocytes; [4]): > 100 µM
CC(C)[C@H](NC(=O)[C@@H](NC(=O)[C@@H]1CCCN1C(=O)[C@@H]1CCCN1C(=O)[C@H](Cc1c[nH]c2ccccc12)NC(=O)[C@H](Cc1ccc(O)cc1)NC(=O)[C@H](C)NC(=O)[C@H](Cc1c[nH]c2ccccc12)NC(=O)[C@H](Cc1c[nH]c2ccccc12)NC(=O)C(C)(C)NC(=O)C(C)(C)NC(=O)C(C)(C)NC(=O)C(C)(C)N)C(C)C)C(N)=O [Compound 44] (H-[Aib][Aib][Aib][Aib]WWAYWPPVV-NH2) | 22 ± 1 (≈ 33.9 µg/mL) |  |  | 97 | 5.2 | 22 ± 1 (≈ 33.9 µg/mL) | > 16 | 98 ± 2 | 5 ± 1 | 
CC(C)[C@H](NC(=O)[C@@H](NC(=O)[C@@H]1CCCN1C(=O)[C@@H]1CCCN1C(=O)[C@H](Cc1c[nH]c2ccccc12)NC(=O)[C@H](Cc1c[nH]c2ccccc12)NC(=O)[C@H](C)NC(=O)[C@H](Cc1c[nH]c2ccccc12)NC(=O)[C@H](Cc1ccc(O)cc1)NC(=O)C(C)(C)NC(=O)C(C)(C)NC(=O)C(C)(C)NC(=O)C(C)(C)N)C(C)C)C(N)=O [Compound 52] (H-[Aib][Aib][Aib][Aib]YWAWWPPVV-NH2) |  |  |  | 87 | 1.9 | 21 ± 1 (≈ 32.4 µg/mL) | > 16 | 105 ± 19 | 3.2 ± 1.4 | 
CC(C)[C@H](NC(=O)[C@@H](NC(=O)[C@@H]1CCCN1C(=O)[C@@H]1CCCN1C(=O)[C@H](Cc1c[nH]c2ccccc12)NC(=O)[C@H](Cc1c[nH]c2ccccc12)NC(=O)[C@H](C)NC(=O)[C@H](Cc1ccc(O)cc1)NC(=O)[C@H](Cc1c[nH]c2ccccc12)NC(=O)C(C)(C)NC(=O)C(C)(C)NC(=O)C(C)(C)NC(=O)C(C)(C)N)C(C)C)C(N)=O [Compound 53] (H-[Aib][Aib][Aib][Aib]WYAWWPPVV-NH2) |  |  |  | 104 | 7.1 | 29 ± 3 (≈ 44.7 µg/mL) | > 16 | 96 ± 12 | 6.7 ± 0.8 | 
CC(C)[C@H](NC(=O)[C@@H](NC(=O)[C@@H]1CCCN1C(=O)[C@@H]1CCCN1C(=O)[C@H](Cc1ccc(O)cc1)NC(=O)[C@H](Cc1c[nH]c2ccccc12)NC(=O)[C@H](C)NC(=O)[C@H](Cc1c[nH]c2ccccc12)NC(=O)[C@H](Cc1c[nH]c2ccccc12)NC(=O)C(C)(C)NC(=O)C(C)(C)NC(=O)C(C)(C)NC(=O)C(C)(C)N)C(C)C)C(N)=O [Compound 54] (H-[Aib][Aib][Aib][Aib]WWAWYPPVV-NH2) |  |  |  | 100 | 3.8 | 8 ± 1 (≈ 12.3 µg/mL) | > 16 | 101 ± 2 | 5.4 ± 1.6 | 
CC(=O)NC(C)(C)C(=O)NC(C)(C)C(=O)NC(C)(C)C(=O)NC(C)(C)C(=O)N[C@@H](Cc1c[nH]c2ccccc12)C(=O)N[C@@H](Cc1c[nH]c2ccccc12)C(=O)N[C@@H](C)C(=O)N[C@@H](Cc1c[nH]c2ccccc12)C(=O)N[C@@H](Cc1ccc(O)cc1)C(=O)N1CCC[C@H]1C(=O)N1CCC[C@H]1C(=O)N[C@H](C(=O)N[C@H](C(N)=O)C(C)C)C(C)C [Compound 78] (Ac-[Aib][Aib][Aib][Aib]WWAWYPPVV-NH2) |  |  |  |  |  | 5 ± 1 (≈ 7.92 µg/mL) | > 16 | 70 ± 2 | 2.3 ± 0.3 | 
CC(C)[C@H](NC(=O)[C@@H](NC(=O)[C@@H]1CCCN1C(=O)[C@@H]1CCCN1C(=O)[C@H](Cc1ccc(O)cc1)NC(=O)[C@H](Cc1c[nH]c2ccccc12)NC(=O)[C@H](C)NC(=O)[C@H](Cc1c[nH]c2ccccc12)NC(=O)[C@H](Cc1c[nH]c2ccccc12)NC(=O)[C@H](C)NC(=O)[C@H](Cc1c[nH]c2ccccc12)NC(=O)[C@H](Cc1c[nH]c2ccccc12)NC(=O)C(C)(C)NC(=O)C(C)(C)NC(=O)C(C)(C)NC(=O)C(C)(C)N)C(C)C)C(N)=O [Compound 79] (H-[Aib][Aib][Aib][Aib]WWAWWAWYPPVV-NH2) |  |  |  |  |  | 2 ± 1 (≈ 3.97 µg/mL) | > 16 | 86 ± 5 | 0.22 ± 0.06 | 
